Data on 1 compound can be found in paper PMC3477601 (Bioorganic & medicinal chemistry letters, 2012).

Where “and” joins values, the source holds several entries; their conditions need not be identical. Identical values can stand only once. Like-named read-outs stand apart in the source and are kept apart here.

The target in data set [1] is T1, PPAR-α (Mus musculus, UniProt P23204). The settings on record: post-PET.
Data set [2] concerns the target T1, PPAR-α. The conditions noted are these: dynamic PET 0–60 min post iv injection.
The mark [3] stands for this setting: PPAR-α overexpressing transgenic mice.

T1 sequence (P23204 whole entry): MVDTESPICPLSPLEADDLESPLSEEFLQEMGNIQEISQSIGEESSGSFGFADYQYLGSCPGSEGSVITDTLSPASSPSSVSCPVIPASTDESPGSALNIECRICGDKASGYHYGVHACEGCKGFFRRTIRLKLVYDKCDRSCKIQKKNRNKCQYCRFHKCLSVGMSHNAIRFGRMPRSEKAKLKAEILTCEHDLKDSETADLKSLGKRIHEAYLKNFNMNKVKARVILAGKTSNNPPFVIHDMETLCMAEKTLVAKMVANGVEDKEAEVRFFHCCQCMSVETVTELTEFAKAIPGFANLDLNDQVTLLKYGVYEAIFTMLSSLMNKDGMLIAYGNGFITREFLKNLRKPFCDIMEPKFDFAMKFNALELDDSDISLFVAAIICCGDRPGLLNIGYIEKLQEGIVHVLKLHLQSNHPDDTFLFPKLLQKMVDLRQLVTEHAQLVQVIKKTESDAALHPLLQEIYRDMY

`CC(C)(Sc1ccc(CCN(CCCCC2CCCCC2)C(=O)Nc2ccc(O[11CH3])cc2)cc1)C(=O)O` [[^11C]KSM-01]: in data set [1] (setting [3]), the Cardiac tissue uptake is 1.09 ± 0.246 %ID/g. The same compound returned a Blood uptake in data set [1] (TG (male MHC PPAR-α overexpressing transgenic mice)) of 0.42±0.14 %ID/g. In data set [1] (TG), this compound displayed a Kidney uptake of 2.58±0.56 %ID/g, a Liver uptake of 55.031 ± 4.926 %ID/g, a Lung uptake of 2.65±0.34 %ID/g and a Muscle uptake of 0.36±0.15 %ID/g. In data set [1] (TG), the Spleen uptake is recorded as 1.33±0.29 %ID/g. The same compound yielded a Blood uptake in data set [1] (WT (wild type mice)) of 0.42±0.10 %ID/g. Besides, in data set [1] (WT), the Liver uptake is 60.699 ± 0.774 %ID/g and 60.69±0.77 %ID/g; the Lung uptake was found to be 2.11±0.31 %ID/g; the Muscle uptake was determined as 0.35±0.18 %ID/g; the Spleen uptake is 1.55±0.14 %ID/g. This compound also had a Cardiac tissue uptake in data set [1] (wild type littermates) of 0.479 ± 0.007 %ID/g. For the same compound, the “Standard uptake value (SUV)” value in data set [2] (setting [3]) was 0.68±0.007. The “Standard uptake value (SUV)” value in data set [2] (control (wild-type) mice) is listed as 0.37±0.09.
